Data as given in patent publication US20120190752A1, “EXO-S-MECAMYLAMINE METHOD, USE, AND COMPOUND FOR TREATMENT” (Targacept Inc., priority 2009, published 2012).

Tested on: subjects with major depressive disorder (MDD) who were inadequate responders to citalopram
Assay: SGI-Cog (Subject Global Impression-Cognition) with Attention, Memory, Speed subscales, Phase 2b add-on trial
Format: in vivo, human
Design: SGI-Cognition Adj. Mean / SGI-Attention Adj. Mean / SGI-Memory Adj. Mean / SGI-Speed Adj. Mean / SGI-Cog TOTAL Adjusted Mean / SGI-Cog MEMORY Adjusted Mean / SGI-Cog ATTENTION Adjusted Mean / SGI-Cog SPEED OF THINKING Adjusted Mean: scale not given here
Conditions: for SGI-Cog ATTENTION Adjusted Mean / SGI-Cog ATTENTION Mean Difference between TC-5214 and Placebo / SGI-Cog MEMORY Adjusted Mean / SGI-Cog MEMORY Mean Difference between TC-5214 and Placebo / SGI-Cog SPEED OF THINKING Adjusted Mean / SGI-Cog SPEED OF THINKING Mean Difference between TC-5214 and Placebo / SGI-Cog TOTAL Adjusted Mean / SGI-Cog TOTAL Mean Difference between TC-5214 and Placebo: Double Blind Week 16; for SGI-Attention Adj. Mean / SGI-Memory Adj. Mean / SGI-Speed Adj. Mean / SGI-Cognition Adj. Mean / SGI-Attention Difference vs placebo / SGI-Cognition Difference vs placebo / SGI-Memory Difference vs placebo / SGI-Speed Difference vs placebo: ITT; for SGI-Attention Adj. Mean / SGI-Memory Adj. Mean / SGI-Speed Adj. Mean / SGI-Cognition Adj. Mean: assessed at endpoint (Week 16), patient rated change from baseline; for SGI-Cognition Adj. Mean: sum of 3 items; for SGI-Attention Difference vs placebo / SGI-Cognition Difference vs placebo / SGI-Memory Difference vs placebo / SGI-Speed Difference vs placebo: endpoint (Week 16)
Experimental: In more detail, a multi-center double-blind, randomized, placebo-controlled, parallel group, flexible dose titration study of TC-5214 as adjunctive therapy in subjects with major depressive disorder (MDD) who were inadequate responders to citalopram was conducted in centers in the US and India. The study consisted of a screening period, baseline/washout period, open-label phase, double-blind phase, and a follow-up visit. Subject participation in the study could continue for up to 16 weeks of treatment. Following a washout period of up to 28 days for other antidepressants, subjects with MDD and a MADRS total score >/=28 and a Clinical Global Impression-Severity (CGI-S) score >/=4 were enrolled on Day 1 into an open-label citalopram-only phase of the study. This phase lasted 8 weeks, with citalopram (CIT) dose increased from a once-daily dose of 20 mg (Day 1 through Week 4) to 40 mg (Week 4 through Week 8). A total of 579 subjects entered the open-label citalopram phase. At Week 8, subjects who tolerated 40 mg CIT, but whose MADRS score was reduced <50% from baseline and no lower than 17, and CGI-S≧4, were considered inadequate responders. These subjects (n=270) were randomized in a double-blind fashion to receive either placebo or TC-5214-23 as add-on therapy to continued CIT. The double-blind phase of the study also lasted 8 weeks (Week 8 to Week 16). Study drug, TC-5214-23 or placebo, was started at 2 mg daily (1 mg twice per day [BID] dosing), added on to continuing CIT (40 mg PO qd). After 2 weeks of treatment, the dose of TC-5214 could be increased to 4 mg (2 mg BID) or continued unchanged, with up-titration based upon good tolerability and inadequate therapeutic response. After a further 2 weeks, the dose of TC-5214 could be increased again to 8 mg (4 mg BID) if judged appropriate by the investigator, based upon good tolerability and inadequate therapeutic response. At any time during the double-blind phase of the study, placebo or TC-5214-23 could be reduced to the previous dose level following the emergence of unacceptable adverse events (AEs). […] At this follow-up, any signs or symptoms of relapse were evaluated. If a subject was prematurely discontinued from the study between Week 8 and Week 16 for any reason, the investigator was to make every effort to perform all evaluations as per protocol, assuming the subject had reached the end of the double-blind add-on treatment phase. These evaluations were to be made as soon as possible and within 2 weeks of discontinuation. […] There was no meaningful difference in results as a function of age, gender, site, or smoking status. [table] With regard to efficacy endpoints, the following tables present efficacy used in the ITT (Intent-to-Treat) and PP (Per Protocol) populations unless otherwise specific. The primary inference was based upon Week 16 visit using the ITT population. Change from baseline was obtained by subtracting the baseline values from the individual on-treatment values. Change from Week 16 was obtained by subtracting the Week 16 values from the individual follow-up visit (Week 18/19) values. If either the baseline or Week 16 or on-treatment or follow-up value was missing, the change from baseline or Week 16 value was also set to missing. To account for missing data, the last observation carry forward (LOCF) method was used for the ITT and PP populations. Thus, the last available on-therapy observation for a subject, including the observation at premature discontinuation, was used to estimate subsequent missing data points. For efficacy, baseline data were collected at Week 8 in the double-blind augmentation phase electronic case report form pages. With regard to SGI-Cog, the endpoint was the Week 16 results for the SGI-Cog. The Week 16 SGI-Cog composite score and each scale were analyzed at Week 16 using ANOVA. […]

## CNC1(C)C2CCC(C2)C1(C)C (stereo in doubt) [TC-5214, (S)—N,2,3,3-tetramethylnorbornan-2-amine]
ITT Population
  SGI-Cog ATTENTION Adjusted Mean: 2.13
  SGI-Cog ATTENTION Mean Difference between TC-5214 and Placebo: 0.72
  SGI-Cog MEMORY Adjusted Mean: 2.23
  SGI-Cog MEMORY Mean Difference between TC-5214 and Placebo: 0.67
  SGI-Cog SPEED OF THINKING Adjusted Mean: 2.16
  SGI-Cog SPEED OF THINKING Mean Difference between TC-5214 and Placebo: 0.76
  SGI-Cog TOTAL Adjusted Mean: 6.52
  SGI-Cog TOTAL Mean Difference between TC-5214 and Placebo: 2.15
  SGI-Attention Adj. Mean: 2.13 (0.09)
  SGI-Memory Adj. Mean: 2.23 (0.09)
  SGI-Speed Adj. Mean: 2.16 (0.09)
  SGI-Cognition Adj. Mean: 6.52 (0.27)
  SGI-Attention Difference vs placebo: −0.72 (−0.96, −0.47)
  SGI-Cognition Difference vs placebo: −2.15 (−2.89, −1.41)
  SGI-Memory Difference vs placebo: −0.67 (−0.93, −0.42)
  SGI-Speed Difference vs placebo: −0.76 (−1.02, −0.50)
Listed as TC-5214 + CIT
  SGI-Attention Adj. Mean: 2.13
  SGI-Memory Adj. Mean: 2.23
  SGI-Speed Adj. Mean: 2.16
  SGI-Cognition Adj. Mean: 6.52
  SGI-Attention Difference vs placebo: −0.72
  SGI-Cognition Difference vs placebo: −2.15
  SGI-Memory Difference vs placebo: −0.67
  SGI-Speed Difference vs placebo: −0.76
PP Population
  SGI-Cog ATTENTION Adjusted Mean: 2.03
  SGI-Cog ATTENTION Mean Difference between TC-5214 and Placebo: 0.76
  SGI-Cog MEMORY Adjusted Mean: 2.15
  SGI-Cog MEMORY Mean Difference between TC-5214 and Placebo: 0.68
  SGI-Cog SPEED OF THINKING Adjusted Mean: 2.05
  SGI-Cog SPEED OF THINKING Mean Difference between TC-5214 and Placebo: 0.81
  SGI-Cog TOTAL Adjusted Mean: 6.23
  SGI-Cog TOTAL Mean Difference between TC-5214 and Placebo: 2.25
Week 16, ITT and PP populations, result in words
  Total SGI-Cog scores compared with placebo: statistically significant lower
